Experimental data from patent publication US9388179B2, “N-substituted indazole sulfonamide compounds with selective activity in voltage-gated sodium channels” (Merck Sharp & Dohme Corp., priority 2012, dated 2016).

Tests used:
Format in all cases: cell-based
[1] = target: T1, Nav 1.7 (Homo sapiens, UniProt Q15858); assay: Comparative examples, Nav 1.7 activity (Patch Express or Ion Works, technique not given); conditions: Table IX, read-out: Activity: Nav 1.7 potency
T1 construct: expressed in transfected cells; host or cells: HEK 293
Protocol: (§1) Potency of the example compounds was assayed using Patch Express or Ion Works techniques, as reported herein. The results are reported below following each example number as follows: Ex-(no.) Nav 1.7 potency (nM) [ratio 1.5:1.7=Nav 1.5 potency (nM)/Nav1.7 potency (nM)].

[2] = target: T2, Nav 1.5 (Homo sapiens, UniProt Q14524); assay: Comparative examples, Nav 1.5 activity (Patch Express or Ion Works, technique not given); conditions: Table IX
T2 construct: expressed in transfected cells; host or cells: HEK 293
Protocol: as §1

[3] = target: T3, human Nav1.5 channels stably expressed in HEK 293 cells (Homo sapiens, UniProt Q14524); assay: IonWorks Quattro automated patch-clamp, inactivated state block; conditions: IonWorks technique
T3 construct: expressed in transfected cells; host or cells: HEK 293
Protocol: (§2) For all electrophysiology experiments, offline analysis was used to correct for current rundown and to determine percent inhibition as a function of drug concentration. IC50 values were determined by fitting to the Hill equation.
(§3) Cell Based Assays for Nav 1.7 and Nav 1.5 Activity
(§4) Compounds were tested on human Nav1.7 and Nav1.5 channels stably expressed in HEK 293 cells. […] Cells were sealed on a planar substrate using the Population Patch […] (PPC) technology. Electrical access was obtained using both nystatin and amphotericin. A double-pulse protocol was used for the determination of IC50 values for inactivated state block. Nav1.7 and Nav1.5 expressing cells were voltage clamped at −100 mV and −110 mV, respectively. A depolarizing prepulse to −10 mV (Nav1.7) or −30 mV (Nav1.5) for 1000 ms followed by a 10 ms repolarization to −100 mV (Nav1.7) or −110 mV (Nav1.5) was given to generate fractional channel inactivation of 50%, followed by a 10 ms test pulse to −10 mV (Nav1.7) or −30 mV (Nav1.5) to measure peak current in control conditions and after compound addition. The following recording solutions were used (mM). External: 150 NaCl, 2 CaCl2, 5 KCl, 1 MgCl2, 10 HEPES, 12 Dextrose; internal: 120 CsF, 30 CsCl, 10 EGTA, 5 HEPES, 5 NaF, 2 MgCl2.

[4] = target: T4, human Nav1.7 channels stably expressed in HEK 293 cells (Homo sapiens, UniProt Q15858); assay: as above; conditions: IonWorks technique; read-out: Nav 1.7 potency
T4 construct: expressed in transfected cells; host or cells: HEK 293
Protocol: as §2, §3, §4

[5] = target: T3, human Nav1.5 channels stably expressed in HEK 293 cells; assay: PatchXpress 7000 automated patch-clamp, inactivated state block; conditions: PatchXpress technique
Protocol: as §2
(§5) Sodium Current Measurements on the PatchXpress 7000®:
(§6) To measure inactivated state block of sodium channels, test compounds were characterized in an automated PatchXpress® assay (Molecular Devices) using a double-pulse protocol on human Nav1.7 and Nav1.5 channels stably expressed in HEK 293 cells. Cells were held at a potential 20 mV negative to V0.5 inact. An 8000 ms pre-pulse 7 mV positive to V0.5 inact was given followed by a hyperpolarizing 2 ms pulse to −120 mV and a 20 ms test pulse to −20 mV. Protocol was applied to cells in the absence, presence of compound and after washout. The temperature of PatchXpress instruments was maintained at 22° C. The following recording solutions were used. Internal solution (mM): 30 CsCl, 5 HEPES, 10 EGTA, 120 CsF, 5 NaF, 2 MgCl2. External solution (mM): 120 NMDG, 40 NaCl, 1 KCl, 0.5 MgCl2, 5 HEPES, 2.7 CaCl2.

[6] = target: T4, human Nav1.7 channels stably expressed in HEK 293 cells; assay: as above; conditions: PatchXpress technique; read-out: Nav 1.7 potency
Protocol: as §2, §5, §6

T1 sequence (Q15858 whole entry): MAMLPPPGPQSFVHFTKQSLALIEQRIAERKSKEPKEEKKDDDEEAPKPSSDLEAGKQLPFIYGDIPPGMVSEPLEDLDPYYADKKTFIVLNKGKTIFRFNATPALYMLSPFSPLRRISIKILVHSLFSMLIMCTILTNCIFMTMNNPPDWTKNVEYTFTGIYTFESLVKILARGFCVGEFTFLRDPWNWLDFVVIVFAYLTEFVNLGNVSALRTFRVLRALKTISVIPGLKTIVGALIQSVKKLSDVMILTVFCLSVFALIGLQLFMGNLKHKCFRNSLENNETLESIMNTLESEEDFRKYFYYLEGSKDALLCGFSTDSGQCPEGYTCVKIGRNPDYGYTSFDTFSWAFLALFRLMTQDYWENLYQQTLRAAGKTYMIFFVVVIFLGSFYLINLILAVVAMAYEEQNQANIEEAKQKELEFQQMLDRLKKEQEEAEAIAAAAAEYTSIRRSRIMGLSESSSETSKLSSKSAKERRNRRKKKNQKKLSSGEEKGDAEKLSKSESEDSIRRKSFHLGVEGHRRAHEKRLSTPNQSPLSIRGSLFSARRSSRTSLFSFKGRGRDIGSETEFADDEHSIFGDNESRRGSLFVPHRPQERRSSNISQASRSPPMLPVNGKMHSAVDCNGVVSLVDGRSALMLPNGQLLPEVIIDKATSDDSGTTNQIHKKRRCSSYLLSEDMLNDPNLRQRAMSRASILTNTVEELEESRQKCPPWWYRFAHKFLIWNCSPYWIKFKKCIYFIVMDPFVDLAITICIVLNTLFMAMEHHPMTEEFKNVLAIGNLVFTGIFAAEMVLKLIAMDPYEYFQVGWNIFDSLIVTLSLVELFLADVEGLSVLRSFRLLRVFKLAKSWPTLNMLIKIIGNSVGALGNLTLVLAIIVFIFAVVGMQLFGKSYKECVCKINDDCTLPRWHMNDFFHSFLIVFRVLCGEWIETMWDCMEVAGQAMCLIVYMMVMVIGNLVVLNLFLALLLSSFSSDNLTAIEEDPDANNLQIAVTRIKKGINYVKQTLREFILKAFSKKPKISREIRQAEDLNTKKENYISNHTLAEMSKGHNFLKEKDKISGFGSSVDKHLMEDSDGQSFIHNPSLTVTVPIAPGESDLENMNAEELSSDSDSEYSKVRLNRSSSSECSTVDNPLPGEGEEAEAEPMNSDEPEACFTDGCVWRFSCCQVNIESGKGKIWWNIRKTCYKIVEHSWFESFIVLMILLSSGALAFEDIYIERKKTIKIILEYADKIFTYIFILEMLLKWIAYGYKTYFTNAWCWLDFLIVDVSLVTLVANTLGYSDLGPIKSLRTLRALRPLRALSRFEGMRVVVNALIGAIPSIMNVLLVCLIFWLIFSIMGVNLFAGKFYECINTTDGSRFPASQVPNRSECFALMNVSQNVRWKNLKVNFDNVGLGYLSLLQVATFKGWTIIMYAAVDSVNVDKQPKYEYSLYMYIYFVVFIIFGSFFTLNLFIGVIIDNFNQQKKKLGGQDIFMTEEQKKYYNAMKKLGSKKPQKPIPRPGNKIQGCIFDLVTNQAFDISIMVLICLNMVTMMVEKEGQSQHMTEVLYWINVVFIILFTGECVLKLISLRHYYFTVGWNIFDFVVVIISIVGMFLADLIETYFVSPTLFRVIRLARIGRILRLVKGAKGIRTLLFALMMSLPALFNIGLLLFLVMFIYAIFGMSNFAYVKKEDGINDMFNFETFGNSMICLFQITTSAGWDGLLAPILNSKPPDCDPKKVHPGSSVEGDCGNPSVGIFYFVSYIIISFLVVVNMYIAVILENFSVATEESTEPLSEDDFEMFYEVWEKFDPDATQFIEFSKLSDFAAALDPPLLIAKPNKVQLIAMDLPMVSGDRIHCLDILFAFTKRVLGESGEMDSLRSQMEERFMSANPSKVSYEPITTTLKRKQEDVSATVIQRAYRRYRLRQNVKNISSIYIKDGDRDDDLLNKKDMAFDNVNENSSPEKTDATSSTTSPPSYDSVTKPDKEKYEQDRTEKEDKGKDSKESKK
T4 sequence (Q15858 whole entry): as above
T3 sequence (Q14524 whole entry): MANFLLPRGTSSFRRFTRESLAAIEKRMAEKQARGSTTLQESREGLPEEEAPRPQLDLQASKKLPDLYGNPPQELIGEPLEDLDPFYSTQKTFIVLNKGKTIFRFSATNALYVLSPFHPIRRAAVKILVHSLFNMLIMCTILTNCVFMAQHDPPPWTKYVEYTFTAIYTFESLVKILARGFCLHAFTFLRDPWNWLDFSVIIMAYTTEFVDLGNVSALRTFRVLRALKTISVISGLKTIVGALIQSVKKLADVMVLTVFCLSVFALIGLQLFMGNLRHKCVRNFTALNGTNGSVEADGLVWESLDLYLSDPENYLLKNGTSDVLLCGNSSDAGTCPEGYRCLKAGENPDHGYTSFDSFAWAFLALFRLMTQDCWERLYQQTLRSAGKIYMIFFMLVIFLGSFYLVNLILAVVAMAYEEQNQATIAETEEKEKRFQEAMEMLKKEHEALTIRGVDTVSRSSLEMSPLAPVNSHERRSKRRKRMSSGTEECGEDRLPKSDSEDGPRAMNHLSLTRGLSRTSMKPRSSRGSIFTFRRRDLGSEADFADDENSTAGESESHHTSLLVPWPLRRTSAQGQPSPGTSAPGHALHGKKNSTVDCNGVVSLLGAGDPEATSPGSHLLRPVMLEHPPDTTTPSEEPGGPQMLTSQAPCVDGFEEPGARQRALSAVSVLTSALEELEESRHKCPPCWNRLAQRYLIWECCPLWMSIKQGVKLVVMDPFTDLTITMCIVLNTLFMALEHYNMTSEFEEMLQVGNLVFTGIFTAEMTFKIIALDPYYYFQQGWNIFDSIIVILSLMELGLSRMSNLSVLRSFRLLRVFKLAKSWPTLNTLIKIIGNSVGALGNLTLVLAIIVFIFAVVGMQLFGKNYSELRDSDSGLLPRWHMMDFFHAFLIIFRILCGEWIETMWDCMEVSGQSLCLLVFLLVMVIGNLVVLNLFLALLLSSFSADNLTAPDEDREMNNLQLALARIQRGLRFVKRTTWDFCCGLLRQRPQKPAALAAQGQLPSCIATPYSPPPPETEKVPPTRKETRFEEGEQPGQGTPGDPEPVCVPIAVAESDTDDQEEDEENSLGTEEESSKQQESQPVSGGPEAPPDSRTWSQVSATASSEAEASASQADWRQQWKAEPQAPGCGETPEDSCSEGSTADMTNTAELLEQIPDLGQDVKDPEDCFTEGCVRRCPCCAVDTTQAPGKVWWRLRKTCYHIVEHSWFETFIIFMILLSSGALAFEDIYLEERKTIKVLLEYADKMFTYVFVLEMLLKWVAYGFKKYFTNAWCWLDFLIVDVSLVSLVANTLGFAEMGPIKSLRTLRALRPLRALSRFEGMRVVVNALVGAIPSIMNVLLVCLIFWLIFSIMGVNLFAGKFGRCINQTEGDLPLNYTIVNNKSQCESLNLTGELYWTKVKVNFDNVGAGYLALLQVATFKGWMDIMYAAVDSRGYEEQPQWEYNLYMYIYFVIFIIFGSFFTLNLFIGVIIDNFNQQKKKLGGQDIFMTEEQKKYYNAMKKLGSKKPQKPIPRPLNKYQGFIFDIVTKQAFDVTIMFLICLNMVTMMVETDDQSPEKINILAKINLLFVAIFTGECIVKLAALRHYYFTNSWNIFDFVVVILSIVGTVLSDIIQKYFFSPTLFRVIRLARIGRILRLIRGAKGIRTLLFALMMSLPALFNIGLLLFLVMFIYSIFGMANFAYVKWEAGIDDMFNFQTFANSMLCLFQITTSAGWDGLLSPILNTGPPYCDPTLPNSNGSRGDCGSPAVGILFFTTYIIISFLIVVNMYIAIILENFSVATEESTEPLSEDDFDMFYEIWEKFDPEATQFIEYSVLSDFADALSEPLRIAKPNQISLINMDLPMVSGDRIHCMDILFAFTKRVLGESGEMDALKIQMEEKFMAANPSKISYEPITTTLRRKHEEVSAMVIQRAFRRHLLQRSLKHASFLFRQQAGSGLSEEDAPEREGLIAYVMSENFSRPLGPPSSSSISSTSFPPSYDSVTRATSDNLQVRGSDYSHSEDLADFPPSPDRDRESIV

Row | Compound | IC50 [1] | Activity: Ratio 1.5:1.7 [2] | Ratio 1.5:1.7 = Nav 1.5 potency (nM)/Nav1.7 potency (nM) [3] | IC50 [4] | Ratio 1.5:1.7 = Nav 1.5 potency (nM)/Nav1.7 potency (nM) [5] | IC50 [6]
1 | Nc1cc(-c2cc(Cl)ccc2Cn2ncc3cc(S(=O)(=O)Nc4ncns4)ccc32)ccn1 [CE-01, 1-(2-(2-aminopyridin-4-yl)-4-chlorobenzyl)-N-(1,2,4-thiadiazol-5-yl)-1H-indazole-5-sulfonamide] | 27 µM | 1 | – | – | – | –
2 | O=S(=O)(Nc1nccs1)c1ccc2c(cnn2Cc2ccc(OC(C(F)(F)F)(C(F)(F)F)C(F)(F)F)cc2)c1 [CE-02, 1-(4-(1,1,1,3,3,3-hexafluoro-2-(trifluoro-methyl)propan-2-yloxy)benzyl)-N-(thiazol-2-yl)-1H-indazole-5-sulfonamide] | 33 µM | 1 | – | – | – | –
3 | O=S(=O)(Nc1nccs1)c1ccc2nn(Cc3ccc(OC(C(F)(F)F)(C(F)(F)F)C(F)(F)F)cc3)cc2c1 [CE-03, 2-(4-(1,1,1,3,3,3-hexafluoro-2-(trifluoro-methyl)propan-2-yloxy)benzyl)-N-(thiazol-2-yl)-2H-indazole-5-sulfonamide] | 33 µM | 1 | – | – | – | –
4 | CN(C)CCNC(=O)c1cccc(-c2ccccc2Cn2ncc3cc(S(=O)(=O)Nc4ncns4)c(F)cc32)c1 [Ex-8, N-[2-(dimethylamino)ethyl]-2′-{[6-fluoro-5-(1,2,4-thiadiazol-5-ylsulfamoyl)-1H-indazol-1-yl]methyl}biphenyl-3-carboxamide] | – | – | 39 | 856 nM | 27 | 1130 nM
5 | C[C@H](c1ccccc1)n1ncc2cc(S(=O)(=O)Nc3ncns3)c(F)cc21 [Ex-9, 6-fluoro-1-[(1R)-1-phenylethyl]-N-1,2,4-thiadiazol-5-yl-1H-indazole-5-sulfonamide] | – | – | 27 | 1040 nM | 65 | 410 nM
6 | O=S(=O)(Nc1ncns1)c1cc2cnn(Cc3ccccc3-c3cccc4c3CCNC4)c2cc1F [Ex-10, 6-fluoro-1-[2-(1,2,3,4-tetrahydroisoquinolin-5-yl)benzyl]-N-1,2,4-thiadiazol-5-yl-1H-indazole-5-sulfonamide] | – | – | 30 | 1080 nM | 38 | 782 nM
7 | C[C@@H](c1ccccc1)n1ncc2cc(S(=O)(=O)Nc3ncns3)c(F)cc21 [Ex-11, 6-fluoro-1-[(1S)-1-phenylethyl]-N-1,2,4-thiadiazol-5-yl-1H-indazole-5-sulfonamide] | – | – | 11 | 1480 nM | 32 | 343 nM
8 | O=S(=O)(Nc1ncns1)c1cc2cnn(Cc3ccccc3)c2cc1F [Ex-12, 1-benzyl-6-fluoro-N-(1,2,4-thiadiazol-5-yl)-1H-indazole-5-sulfonamide] | – | – | 15 | 936 nM | 174 | 495 nM
9 | NC/C=C/c1ccccc1Cn1ncc2cc(S(=O)(=O)Nc3ncns3)ccc21 [Ex-15, 1-{2-[(1E)-3-aminoprop-1-en-1-yl]benzyl}-N-1,2,4-thiadiazol-5-yl-1H-indazole-5-sulfonamide] | – | – | 207 | 159 nM | 237 | 127 nM
10 | NC/C=C/c1cc(Cl)ccc1Cn1ncc2cc(S(=O)(=O)Nc3ncns3)ccc21 [Ex-16, 1-{2-[(1E)-3-aminoprop-1-en-1-yl]-4-chlorobenzyl}-N-1,2,4-thiadiazol-5-yl-1H-indazole-5-sulfonamide] | – | – | 81 | 413 nM | 32 | 939 nM
11 | O=S(=O)(Nc1ncns1)c1ccc2c(cnn2Cc2ccc(Cl)cc2C2=CCNCCC2)c1 [Ex-17, 1-[4-chloro-2-(2,5,6,7-tetrahydro-1H-azepin-4-yl)benzyl]-N-1,2,4-thiadiazol-5-yl-1H-indazole-5-sulfonamide] | – | – | 59 | 559 nM | 7 | 4470 nM
12 | O=S(=O)(Nc1ncns1)c1ccc2c(cnn2Cc2ccc(Cl)cc2C2=CCNCC2)c1 [Ex-18, 1-[4-chloro-2-(1,2,3,6-tetrahydropyridin-4-yl)benzyl]-N-1,2,4-thiadiazol-5-yl-1H-indazole-5-sulfonamide] | – | – | 42 | 781 nM | 6 | 5210 nM
13 | O=S(=O)(Nc1ncns1)c1ccc2c(cnn2Cc2ccccc2)c1 [Ex-19, 1-benzyl-N-1,2,4-thiadiazol-5-yl-1H-indazole-5-sulfonamide] | – | – | 39 | 856 nM | 6 | 3030 nM
14 | O=S(=O)(Nc1ncns1)c1ccc2c(cnn2Cc2ccccc2-c2cccc3c2CCNC3)c1 [Ex-22, 1-[2-(1,2,3,4-tetrahydroisoquinolin-5-yl)benzyl]-N-1,2,4-thiadiazol-5-yl-1H-indazole-5-sulfonamide] | – | – | 23 | 1460 nM | > 10 | 2900 nM
15 | O=S(=O)(Nc1ncns1)c1ccc2c(cnn2Cc2ccccc2C2=CCNCCC2)c1 [Ex-23, 1-[2-(2,5,6,7-tetrahydro-1H-azepin-4-yl)benzyl]-N-1,2,4-thiadiazol-5-yl-1H-indazole-5-sulfonamide] | – | – | 19 | 1700 nM | > 7 | 4470 nM
16 | O=S(=O)(Nc1ncns1)c1ccc2c(cnn2Cc2ccc(Cl)cc2-c2cccc3c2CCNC3)c1 [Ex-25, 1-[4-chloro-2-(1,2,3,4-tetrahydroisoquinolin-5-yl)benzyl]-N-1,2,4-thiadiazol-5-yl-1H-indazole-5-sulfonamide] | – | – | 23 | 1480 nM | 10 | 2900 nM
17 | C[C@@H](c1cccc2c1CNCC2)n1ncc2cc(S(=O)(=O)Nc3ncns3)c(F)cc21 [Ex-64, (S)-6-fluoro-1-(1-(1,2,3,4-tetrahydroisoquinolin-8-yl)ethyl)-N-(1,2,4-thiadiazol-5-yl)-1H-indazole-5-sulfonamide] | – | – | 42 | 777 nM | 36 | 833 nM
